Laboratory results as given in patent US5360790A, “Method and formulations for the therapy of acute renal failure” (The Regents of the University of Michigan, priority 1993, dated 1994).

Key:
Assay type in all cases: in vivo, rat
renal tubule cells [1] = assay: Histoautoradiography of 3H-thymidine labeled kidney cells after renal ischemia
Text: To localize and identify the cells incorporating the radiolabeled thymidine within the kidney, histoautoradiography of kidney samples was also accomplished. For quantitative evaluation, a computerized operator-interactive system was used. Sections were examined at 276 magnification, and 10-15 fields were counted in the cortex and outer and inner stripes of the outer medulla in each section for an individual animal. The cell type of the labeled cells was identified as either tubular or interstitial.
At varying time points after reperfusion, measurements of ^3 H-thymidine incorporation into the kidneys and BUN, and serum creatinine levels were determined.

renal tubule cells [2] = assay: Histoautoradiography of [3H] thymidine labeled kidney cells after HgCl2
Protocol: (§1) At time intervals of 24, 30, 48, and 72 hours after toxin administration, [^3 H] thymidine incorporation into renal cortex, as well as blood urea nitrogen (BUN) and serum creatinine levels, were determined with methods known and practiced in the art. To obtain a complete time course for the BUN and serum creatinine levels, some animals were allowed to recover for as long as 12 days after HgCl2 administration, and blood samples were obtained daily for BUN and serum creatinine levels.
Histoautoradiographic studies were performed to determine the type of cells labeled with [^3 H] thymidine after HgCl2 exposure. Kidney sections from rats at 48 or 72 h after toxic administration were used for histoautoradiographic analysis. Labeling was confined to the nuclei. On average, 97.9% of the labeled cells were tubule cells, and 2.1% of the labeled cells were interstitial cells in the 60 examined fields. In control rats undergoing sham injection, 98.4% of labeled cells were tubule, and 1.6% were interstitial in 90 examined fields.

renal tubule cells [3] = assay: [3H] thymidine incorporation into renal cortex after HgCl2 (nephrotoxic acute renal failure); conditions: for [3H] Thymidine Incorporation: EGF 20 μg sc 2-4 h after nephrotoxin
Protocol: as §1

renal tubule cells [4] = assay: 3H-thymidine incorporation into kidneys after bilateral renal artery clamping (ischemic acute renal failure)
Protocol: (§2) Sprague Dawley rats (250-325 g) were anesthetized with a short-acting barbiturate, the abdominal cavity was exposed, and both left and right renal arteries were identified and clamped for 30 minutes. The clamps were released and perfusion to the kidneys reestablished. At time intervals of 24, 48, and 72 hours after ischemia and reperfusion, ^3 H-thymidine incorporation into kidneys, as well as blood urea nitrogen (BUN) and serum creatinine levels. To obtain a complete time course, some animals were allowed to recover for 7 days after renal ischemia and blood samples were then obtained daily for BUN or serum creatinine measurements.
(§3) This dose of EGF is substantially lower than those employed in previously reported studies that administered EGF systemically. At varying time points after reperfusion, measurements of ^3 H-thymidine incorporation into the kidneys and BUN, and serum creatinine levels were determined.

Male Sprague-Dawley rats [5] = assay: Histological score of tubule cell injury after HgCl2; conditions: 24 h after HgCl2; n=120 fields from 3 animals; P=NS vs non-EGF-treated
Protocol: Histological grading was assessed at 24 h, a time at which the peak of HgCl2 -induced toxic renal injury occurs and just before the accelerated regeneration repair phase. At 24 h, the mean histological scores in the inner cortex and outer stripe were 2.92±0.13 and 4.70±0.07, respectively, in the nephrotoxic non-EGF-treated rats vs. scores of 3.25±0.18 and 4.65±0.08, respectively, in the nephrotoxic EGF-treated rats (n=120 fields from 3 animals in each treatment group, P=NS for both scores). At 24 h after HgCl2, extensive necrosis was present in proximal tubule segments with no difference in the degree of tubule cell necrosis observed histologically between the EGF-treated and nontreated groups receiving HgCl2.

Sprague Dawley rats = assay: BUN and serum creatinine time course after renal ischemia; conditions: single dose EGF within 1-1.5 hours of reperfusion after 30 minutes bilateral renal ischemia; entire 7-day period
Protocol: as §2, §3

Male Sprague-Dawley rats [6] = assay: BUN and serum creatinine time course after HgCl2 (nephrotoxic acute renal failure)
Protocol: as §1

[7] = EGF-treated postischemic rats at 24 hours
[8] = postischemic kidneys at 24 hours after EGF administration
[9] = EGF-treated rats, 48 h after HgCl2 injection, 60 fields
[10] = peak at 3 days after HgCl2 injection, EGF 20 μg sc, P<0.001 vs nontreated

Question: Which results are given for epidermal growth factor [EGF]?
Answer: labeled cells identified as interstitial cells (renal tubule cells [1]; [7]): 1.9%; labeled cells identified as tubule (renal tubule cells [1]; [7]): 98.1%; labeled interstitial cells, absolute number (renal tubule cells [1]; [7]): 61; labeled tubule cells, absolute number (renal tubule cells [1]; [7]): 3,183; distribution of labeled tubule cells: cortex (renal tubule cells [1]; [8]): 27%; distribution of labeled tubule cells: outer stripe of the outer medulla (renal tubule cells [1]; [8]): 68%; number of tubule cells incorporating [3H] thymidine (renal tubule cells [2]; 24 h after HgCl2, renal cortex and outer medulla, n=3 rats and 60 fields, P<0.02 vs nontreated): 7.5±1.8 labeled cells/field; number of labeled tubule cells (renal tubule cells [2]; 48 h after HgCl2, renal cortex and outer medulla, n=3 rats and 60 fields): 20.9±2.1 cells/field; labeled cells identified as interstitial cells (renal tubule cells [2]; [9]): 3.7%; labeled cells identified as tubule (renal tubule cells [2]; [9]): 96.3%; [3H] Thymidine Incorporation (renal tubule cells [3]; 0 h, rats given 5 mg/kg HgCl2, mean (SE 0.03 printed)): 0.12 dpm × 10^4 /mg DNA; [3H] Thymidine Incorporation (renal tubule cells [3]; 24 h after 5 mg/kg HgCl2, mean (SE 1.28 printed)): 13.81 dpm × 10^4 /mg DNA; [3H] Thymidine Incorporation (renal tubule cells [3]; 48 h after 5 mg/kg HgCl2, mean (SE 19.52 printed)): 80.52 dpm × 10^4 /mg DNA; [3H] Thymidine Incorporation (renal tubule cells [3]; 72 h after 5 mg/kg HgCl2, mean (SE 13.80 printed)): 116.24 dpm × 10^4 /mg DNA; renal thymidine incorporation compared with non-EGF-treated animals receiving the nephrotoxin (renal tubule cells [3]; single dose EGF 2 or 4 h after HgCl2, at 24, 30, 48 and 72 h): higher rates of renal thymidine incorporation; 3H-thymidine incorporation, sham ischemia (renal tubule cells [4]; EGF treatment of rats undergoing sham ischemia, P=NS, n=3): did not show any increase; renal thymidine incorporation compared with control nontreated ischemia values (renal tubule cells [4]; single dose EGF 1-1.5 hours after reperfusion, 24, 48, 72 hours of reperfusion after 30 minutes bilateral renal artery clamping): significantly increased renal thymidine incorporation; mean histological score, inner cortex (Male Sprague-Dawley rats [5]): 3.25±0.18; mean histological score, outer stripe (Male Sprague-Dawley rats [5]): 4.65±0.08; BUN levels of EGF-treated animals (Sprague Dawley rats): significantly lower; creatinine levels of EGF-treated animals (Sprague Dawley rats): significantly lower; return to near normal BUN and serum creatinine, earlier than in non-EGF-treated animals (Male Sprague-Dawley rats [6]; after HgCl2): 4 days; return to near normal BUN and serum creatinine levels (Male Sprague-Dawley rats [6]; day after HgCl2 administration): 8 days; peak BUN level (Male Sprague-Dawley rats [6]; [10]): 213 ± 23 mg/dL; peak serum creatinine level (Male Sprague-Dawley rats [6]; [10]): 6.54 ± 0.72 mg/dL
